From patent publication US9624179B1, “Quinazoline derivative Lu1501 and preparing method and application thereof” (NANJING GENERAL HOSPITAL OF NANJING MILITARY REGION OF PLA, priority 2015, dated 2017)
Read-outs that look alike come from different tables or passages of the source.

Tests used:
Format in all cases: cell-based
[1] = tested on: U-118 MG (human astrocytoma); assay: MTT inhibition of proliferation, U-118 MG; conditions: 48 h, read-out: Inhibitory Activity on the Proliferation of Tumor Cells (IC50 ± SD) U-118 MG
Experimental: (§1) The compound 8 of the invention was prepared into required concentrations using a culture medium containing 0.1% DMSO.
(§2) The seven tumor cells including MCF-7 (human breast cancer cell, ATCC:HTB-22), SK-BR-3 (human breast cancer cell, ATCC:HTB-30), A549 (human non-small cell lung cancer cell, ATCC:CRM-CCL-185), HCT116 (human colon cancer cell, ATCC:CCL-247), U-118 MG (human astrocytoma, ATCC:HTB-15), U-87 MG (human astrocytoma, ATCC:HTB-14), MDA-MB-468 (human breast cancer cell, ATCC:HTB-132) were all purchased from American Type Culture Collection (ATCC). […]
(§3) MCF-7, SK-BR-3, A549, HCT 116, U-118 MG U-87 MG and MDA-MB-468 cells in logarithmic phase with excellent growth conditions were grafted into a 96-well plate according to a density of 1×10^4 cells/mL, wherein each well was grafted 100 μl. […] A supernate was absorbed out carefully, 150 μl DMSO was added into each hole to dissolve purple residue (formazan), flatly oscillated for 10 min to completely dissolve deposits, then O.D. value (absorbancy) was measured on a microplate reader, wherein the wavelength was 570 nm. […]
(§4) The test was repeated for thrice. A diagram was made by plotting the inhibition rate against the concentration of the compound, and the IC50 (half effective inhibitive concentration) value of the compound 8 of the invention was calculated. […]

[2] = tested on: MDA-MB-468 (human breast cancer cell); assay: MTT inhibition of proliferation, MDA-MB-468; conditions: MDA-MB-468, MTT, 48 h, read-out: Inhibitory Activity on the Proliferation of Tumor Cells (IC50 ± SD) MDA-MB-468
Experimental: as §1, §2, §3, §4

[3] = tested on: SK-BR-3 (human breast cancer cell); assay: MTT inhibition of proliferation, SK-BR-3; conditions: SK-BR-3, MTT, 48 h, read-out: Inhibitory Activity on the Proliferation of Tumor Cells (IC50 ± SD) SK-BR-3
Experimental: as §1, §2, §3, §4

[4] = tested on: U-87 MG (human astrocytoma); assay: MTT inhibition of proliferation, U-87 MG; conditions: 48 h, read-out: Inhibitory Activity on the Proliferation of Tumor Cells (IC50 ± SD) U-87 MG
Experimental: as §1, §2, §3, §4

[5] = tested on: A549 (human non-small cell lung cancer cell); assay: MTT inhibition of proliferation, A549; conditions: 48 h, read-out: Inhibitory Activity on the Proliferation of Tumor Cells (IC50 ± SD) A549
Experimental: as §1, §2, §3, §4

[6] = tested on: MCF-7 (human breast cancer cell); assay: MTT inhibition of proliferation, MCF-7; conditions: MCF7, MCF-7, MTT, 48 h, read-out: Inhibitory Activity on the Proliferation of Tumor Cells (IC50 ± SD) MCF-7
Experimental: as §1, §2, §3, §4

[7] = tested on: HCT116 (human colon cancer cell); assay: MTT inhibition of proliferation, HCT 116; conditions: HCT 116, MTT, 48 h, read-out: Inhibitory Activity on the Proliferation of Tumor Cells (IC50 ± SD) HCT 116
Experimental: as §1, §2, §3, §4

Row | IC50 [1] | IC50 [2] | IC50 [3] | IC50 [4] | IC50 ([1]; Homo sapiens) | IC50 ([2]; Homo sapiens) | IC50 ([3]; Homo sapiens) | IC50 [5] | IC50 ([4]; Homo sapiens) | IC50 [6] | IC50 [7] | Structure (SMILES)
1 | 13.5 ± 1.75 µM | 2.45 ± 0.31 µM | 4.65 ± 0.02 µM | 82.5 ± 7.15 µM |  |  |  |  |  |  |  | COc1cccc2c1C(=O)c1c(O)c3c(c(O)c1C2=O)C[C@@](O)(C(=O)CO)C[C@@H]3O[C@H]1C[C@H](N)[C@H](O)[C@H](C)O1 [ADR, Adriamycin amycin, reference compound]
2 |  |  |  |  | 24.5 ± 2.68 µM | 19.4 ± 1.33 µM | 10.2 ± 0.86 µM | 5.66 ± 1.01 µM | 5.45 ± 0.61 µM | 16.1 ± 3.47 µM | 2900 ± 1020 nM | COc1cc2ncnc(Nc3ccc(NCc4ccc(F)cc4)cc3)c2cc1OCCN1CCCC1 [Compound 8, N-[(4-fluorophenyl)methyl]-4-N-{7-methoxy-6-[(2-pyrrolidin-1-yl)hydroxyethyl]quinazolin-4-yl}phen-1,4-diamine]
